Assay [1] has as its system bitter taste receptor cells / high-salt sensing pathway. Description: chorda tympani nerve recordings before and after AITC application to the tongue. It counts as in vivo, mice. The procedure:
Lingual stimulation and recording procedures were performed as previously described (Chandrashekar et al. (2010); Nelson et al. (2002)). Data analysis used the integrated response during the 5 seconds of tastant stimulation.
Responses to 20 mM citric acid (FIGS. 2 and 3), 60 mM NaCl (FIG. 8, 12, and 13), or 250 mM KCl before AITC application (FIG. 13) were used to normalize responses for each experimental series. For FIG. 7, data were normalized to 20 mM citric acid and then scaled to WT responses before AITC application. Data were analyzed for statistical significance using an unpaired, one-tailed Student's t-test and 95% confidence limits.
To compute the amiloride-sensitive salt component, the stimulation regime involved sequential applications of NaCl solutions first without, and then with, amiloride (5 seconds pre- or pre- and post-incubation and co-application with NaCl solution) in the same experimental series. The amiloride-insensitive component was defined as the response in the presence of amiloride. The fraction of the response inhibited by amiloride was defined as the amiloride-sensitive component (amiloride-sensitive component=response without amiloride−response with amiloride).
For pharmacological inhibition studies using allyl isothiocyanate (AITC), responses to a series of taste stimuli were measured. Then 3 mM AITC (Aldrich, 377430-5G) was applied to the tongue at a rate of 6 ml/minute for 5 minutes. The tongue was washed with artificial saliva for 1 minute and nerve responses to the same series of taste stimuli measured. Responses before and after AITC were compared for each animal. To minimize effects of recovery, responses after AITC were recorded within 15 minutes of AITC treatment.

Assay [2] concerns tongue carbonic anhydrases. Description: chorda tympani nerve recordings before and after DZA treatment of the tongue. It counts as in vivo, mice.
In assay [3] the test system is T2R32-Sapphire positive taste cells. Description: calcium imaging of fungiform taste receptor cells. It counts as cell-based. Particulars: T2R32-Sapphire mice; for response of T2R32-Sapphire positive taste cells to stimulus: 500 mM KCl (high-salt), 100 mM citric acid (sour). The procedure:
Calcium imaging from fungiform TRCs was performed as previously described (Chandrashekar et al. (2010); Oka et al. (2006)).
Fungiform TRCs were loaded in vivo with Calcium Green-1 dextran 3 kD (Invitrogen) by electroporating individual taste buds. Tongues were removed 24-36 hours after dye loading, and the epithelium was peeled enzymatically and placed in a custom recording chamber. The apical surface of the preparation was bathed in a constant flow of artificial saliva, and taste stimuli were delivered by focal application to individual taste buds. Tastants were applied for 1 second, with a minimum of 10 seconds of artificial saliva between stimuli. Changes in [Ca2+]i were monitored using a 5-Live confocal microscope (Zeiss) equipped with a ×40 C-Apochromat 1.20 W objective; images were captured at 4 Hz, and ΔF/F from individual TRCs analyzed and pseudo-colored as described previously (Chandrashekar et al. (2010)).
To identify sapphire positive cells in T2R32-Sapphire mice, 405-nm excitation laser to separate sapphire and Calcium Green-1 fluorescence was used. Mean cellular fluorescence intensity (F) was calculated for the individual TRCs and basal fluorescence (Fo) was assigned to each cell by averaging fluorescence intensity over 3 seconds just before tastant application. ΔF/F was calculated as [F−Fo]/Fo; taste cells were considered responders when ΔF/F exceeded 3 standard deviations above Fo within 5 seconds of tastant application.

In another assay the target is CA4 (Mus musculus, UniProt Q64444). Particulars: TRPM5-KO mice; before and after addition of 30 mM KHCO3 (pH7.4).
Chain of CA4 (Q64444 18-277): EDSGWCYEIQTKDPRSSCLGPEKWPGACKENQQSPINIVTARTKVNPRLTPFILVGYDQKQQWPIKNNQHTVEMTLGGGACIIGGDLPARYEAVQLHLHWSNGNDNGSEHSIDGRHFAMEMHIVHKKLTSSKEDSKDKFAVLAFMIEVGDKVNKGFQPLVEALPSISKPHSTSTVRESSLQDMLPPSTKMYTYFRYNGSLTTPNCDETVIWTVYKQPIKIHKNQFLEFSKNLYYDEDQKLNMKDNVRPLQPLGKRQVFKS
The mark [4] stands for this setting: control and T2R-PLC rescue animals, AITC treatment.

For the compound `C=CCN=C=S` [AITC, allyl isothiocyanate], in assay [1] (1 mM cycloheximide, 1 and 30 minutes after AITC treatment), the “chorda tympani responses to high concentration of bitter tastant cycloheximide” value is recorded as “strongly suppresses”. The “chorda tympani responses to other bitter tastants” value in assay [1] (10 mM denatonium and 10 mM quinine, after AITC treatment) is “suppressed”. For the same compound, the “chorda tympani response to sour taste” value in assay [1] (20 mM citric acid, after AITC treatment) is “remained unimpaired”. The “taste response evoked by AITC itself” value in assay [1] (5 minutes exposure of the tongue to 3 mM AITC) is “minimal taste response”. In addition, the “fraction of high-salt neural responses eliminated” value in assay [1] (AITC treatment, FIG. 7) was “about 50%”. The “remaining high-salt (KCl) responses in PKD2L1-TeNT mice” value in assay [1] (PKD2L1-TeNT mice, further treatment with AITC) is on record as “effectively abolished”. Further, the “bitter and high-salt taste responses in TRPA1-KO mice” value in assay [1] (TRPA1-KO mice, with and without AITC) is “robust AITC-mediated suppression”. For the same compound, in assay [1] (TRPM5-KO and PLCβ2-KO mice, before and after AITC), the “nerve responses to high salt in TRPM5 and PLCβ2 knockout mice” value is on record as “no longer sensitive”. For the same compound, in assay [1] (setting [4]), the “chorda tympani responses to 0.1 mM cycloheximide” value was “almost completely suppressed”; the “chorda tympani responses to 500 mM KCl and 500 mM NaCl in the presence of 10 μM amiloride” value is “reduced by half”. For the same compound, the “chorda tympani bitter responses” value in assay [1] (wild type mice, 0.1 mM cycloheximide, after 3 mM AITC) is listed as “completely inhibited”. The “chorda tympani responses to low salt” value in assay [1] (wild type mice, 60 mM NaCl, after 3 mM AITC) is on record as “did not affect”. For the same compound, in assay [1] (wild type mice, 250 or 500 mM NaCl + amiloride and KCl, after 3 mM AITC for 5 minutes), the “chorda tympani responses to high-salt” value was “significantly suppressed”. For the same compound, the “chorda tympani responses to KCl (selectively activates the high-salt pathway)” value in assay [1] (wild type mice, after 3 mM AITC) is “Identical suppression”. Moreover, the “chorda tympani responses to other taste qualities” value in assay [1] (wild type mice, sour, sweet, umami tastants, after 3 mM AITC) is recorded as “did not affect”.
As to `CCN[C@H]1C[C@H](C)S(=O)(=O)c2sc(S(N)(=O)=O)cc21` [DZA, dorzolamide], the “taste responses from PKD2L1-TeNT mice” value in assay [2] (PKD2L1-TeNT mice, various salts, 0.5% w/v DZA) is on record as “completely insensitive”. Besides, in assay [2] (TRPM5-KO mice, 20 mM citric acid, 60 mM NaCl, 0.5% w/v DZA), the “sour and low salt taste responses” value is recorded as “insensitive”. Moreover, the “CO2 chorda tympani responses” value in assay [2] (TRPM5-KO mice, 0.5% w/v DZA) is recorded as “affected”. In addition, the “high-salt induced chorda tympani responses from sour taste cells” value in assay [2] (TRPM5-KO mice, 0.5% w/v DZA for 5 minutes) is recorded as “reduced”.
Take `[Cl-].[K+]` [KCl, potassium chloride]: in assay [3] (500 mM KCl), the “number of Sapphire-positive cells activated” value came to 12 cells. For the same compound, the “response of T2R32-Sapphire positive taste cells to stimulus” value in assay [3] is recorded as “responded”.
As to `O=C(O)O` [KHCO3], the “chorda tympani responses to 500 mM KCl or 100 mM CaCl2 (PKD2L1-cell mediated high-salt responses)” value at CA4 is recorded as “strong inhibition”.
Consider `O=C(O)CC(O)(CC(=O)O)C(=O)O` [citric acid], for which, in assay [3], the “response of T2R32-Sapphire positive taste cells to stimulus” value is recorded as “not”.
